Key:
[1] = biological target: T1, purified HLA DRB3*0101 (Homo sapiens, UniProt P01903+P79483); assay: HLA-DR radioligand binding inhibition assay, DRB3*0101; conditions: IC50 nM purified HLA DRB3 *0101, purified HLA DRB3*0101
T1 construct: purified from EBV transformed homozygous cell lines or single MHC allele transfected 721.221, C1R, or fibroblast lines; made in house
Experimental: (§1) Instead, wells of an opaque white 96-well Optiplate (Packard) are coated with 3 μg (100 μl@ 30 μg/ml) of HLA-specific antibody (Ab) that “capture” complexes of radiolabeled MHC and unlabeled peptide transferred from the molecular binding assay plate in 100 μl of 0.05% NP40/PBS. After a 3-hour incubation period, the supernatant is decanted and scintillation fluid (Microscint 20) added. Captured complexes are then measured on a microplate scintillation and luminescence counter (TopCount NXTTM; Packard).
(§2) HLA-DR purification. Fifteen distinct HLA-DR molecules were used in quantitative assays to measure the binding of peptides to solubilized HLA-DR molecules. […] Briefly, columns of inactivated Sepharose CL4B and Protein A Sepharose were used as pre-columns. HLA-DR molecules were captured by passage of lysates over LB3.1 monoclonal antibody (anti-HLA-DRA) columns. Antibody columns were washed with 10 mM Tris-HCL, pH8.0 with 1% (v/v) NP-40, followed by PBS containing 0.4% (w/v) n-octylglucoside. […] The pH was reduced to 8.0 and the eluates were concentrated by centrifugation in Centriprep 30 concentrators at 2000 rpm (Amicon, Beverly, Mass.).
(§3) Briefly, 1-10 nM of radiolabeled peptide was co-incubated for 2 days at either room temperature or 37° C. with 1 μM to 1 nM purified HLA-DR molecules in the presence of a cocktail of protease inhibitors. Assays were performed at various pH conditions, ranging from pH 4 to pH 7. […] After incubation, the percentage of HLA-DR-bound radioactivity is determined by capturing HLA-DR/peptide complexes on Optiplates (Packard Instruments, Meriden, Conn.) coated with the LB3.1 antibody and determining bound counts per minute using the TopCount microscintillation counter (Packard Instruments). […] Competitor peptides are tested in 2-4 complete, independent experiments, at concentrations ranging from […].

[2] = biological target: T2, purified HLA DRB1*1201 (Homo sapiens, UniProt P01903+P01911, A100R/A169T/D57E/D86V/F55L/H45Y/K41T/L162R/M171V/P40S/Q125H/Q178H/Q39Y/Q99D/R42G/S66L/T262R/V114A/V67L/W38E/Y59H/Y61H/Y89S); assay: HLA-DR radioligand binding inhibition assay, DRB1*1201
T2 construct: purified from EBV transformed homozygous cell lines or single MHC allele transfected 721.221, C1R, or fibroblast lines; made in house
Experimental: as §1, §2, §3

[3] = biological target: T3, purified HLA DRB1*0404 (Homo sapiens, UniProt P01903+P01911, A100R/A169T/F76Y/I96L/K127E/L162R/M171V/N62H/P40V/Q125Y/R42H/S133A/S149N/S66Y/V209L/W38E); assay: HLA-DR radioligand binding inhibition assay, DRB1*0404; conditions: IC50 nM purified HLA DRB1 *0404, purified HLA DRB1*0404
T3 construct: purified from EBV transformed homozygous cell lines or single MHC allele transfected 721.221, C1R, or fibroblast lines; made in house
Summary of the method: (§4)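 First, HLA-DR was purified from lysates on LB3.1 columns. Then 1 μM to 1 nM protein was incubated 2 days with 1-10 nM radiolabeled peptide at pH 4 to 7. Finally, complexes were captured for 3 hours and bound cpm determined.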

[4] = biological target: T4, purified HLA DRB1*0901 (Homo sapiens, UniProt P01903+P01911, A100R/A103E/D57H/D86V/F55Y/F60I/F76Y/I96F/K127E/L162R/M171V/P40D/Q125H/Q99R/R33Q/R42F/S133A/S66N/T210M/V115G/W38K/Y107V/Y59G/Y89S); assay: HLA-DR radioligand binding inhibition assay, DRB1*0901; conditions: IC50 nM purified HLA DRB1 *0901, purified HLA DRB1*0901
T4 construct: purified from EBV transformed homozygous cell lines or single MHC allele transfected 721.221, C1R, or fibroblast lines; made in house
Experimental: as §1
HLA-DR purification. Fifteen distinct HLA-DR molecules were used in quantitative assays to measure the binding of peptides to solubilized HLA-DR molecules. […] Briefly, columns of inactivated Sepharose CL4B and Protein A Sepharose were used as pre-columns. HLA-DR molecules were captured by passage of lysates over LB3.1 monoclonal antibody (anti-HLA-DRA) columns. Antibody columns were washed with 10 mM Tris-HCL, pH8.0 with 1% (v/v) NP-40, followed by PBS containing 0.4% (w/v) n-octylglucoside.
Briefly, 1-10 nM of radiolabeled peptide was co-incubated for 2 days at either room temperature or 37° C. with 1 μM to 1 nM purified HLA-DR molecules in the presence of a cocktail of protease inhibitors. Assays were performed at various pH conditions, ranging from pH 4 to pH 7. […] After incubation, the percentage of HLA-DR-bound radioactivity is determined by capturing HLA-DR/peptide complexes on Optiplates (Packard Instruments, Meriden, Conn.) coated with the LB3.1 antibody and determining bound counts per minute using the TopCount microscintillation counter (Packard Instruments).

[5] = biological target: T5, purified HLA DRB1*0701 (Homo sapiens, UniProt P01903+P01911, A100R/A102G/A103Q/D57E/D86V/E43K/F76Y/K127E/L162R/M171V/P40G/Q125H/Q99D/R33Q/R42Y/R54Q/S133A/S66F/T210M/V115G/Y107V/Y59L/Y89S); assay: HLA-DR radioligand binding inhibition assay, DRB1*0701; conditions: IC50 nM purified HLA DRB1 *0701, purified HLA DRB1*0701
T5 construct: purified from EBV transformed homozygous cell lines or single MHC allele transfected 721.221, C1R, or fibroblast lines; made in house
Summary of the method: as §4

[6] = biological target: T6, purified HLA DRB1*1101 (Homo sapiens, UniProt P01903+P01911, A100R/A169T/A87E/I96F/K41T/L162R/M171V/P40S/Q125H/Q178H/Q39Y/Q99D/R42S/S66Y/T262R/V115G/W38E); assay: HLA-DR radioligand binding inhibition assay, DRB1*1101; conditions: IC50 nM purified HLA DRB1 *1101, purified HLA DRB1*1101
T6 construct: purified from EBV transformed homozygous cell lines or single MHC allele transfected 721.221, C1R, or fibroblast lines; made in house
Summary of the method: as §4

[7] = biological target: T7, purified HLA DRB1*1302 (Homo sapiens, UniProt P01903+P01911, A100E/A169T/K41T/L162R/M171V/P40S/Q125H/Q178H/Q39Y/Q99D/R42S/S66N/T262R/V115G/W38E/Y61H); assay: HLA-DR radioligand binding inhibition assay, DRB1*1302
T7 construct: purified from EBV transformed homozygous cell lines or single MHC allele transfected 721.221, C1R, or fibroblast lines; made in house
Summary of the method: as §4

[8] = biological target: T8, purified HLA DRB1*0405 (Homo sapiens, UniProt P01903+P01911, A100R/A169T/D86S/F76Y/I96L/K127E/L162R/M171V/N62H/P40V/Q125Y/R42H/S133A/S149N/S66Y/V115G/V209L/W38E); assay: HLA-DR radioligand binding inhibition assay, DRB1*0405; conditions: IC50 nM purified HLA DRB1 *0405, purified HLA DRB1*0405
T8 construct: purified from EBV transformed homozygous cell lines or single MHC allele transfected 721.221, C1R, or fibroblast lines; made in house
Summary of the method: as §4

[9] = biological target: T9, purified HLA DRB1*0802 (Homo sapiens, UniProt P01903+P01911, A100R/A103L/A169T/F76Y/H45Y/I96F/K41T/L162R/M171V/P40S/Q125H/Q178H/Q39Y/Q99D/R218S/R42G/S66Y/V115G/W38E); assay: HLA-DR radioligand binding inhibition assay, DRB1*0802; conditions: IC50 nM purified HLA DRB1 *0802, purified HLA DRB1*0802
T9 construct: purified from EBV transformed homozygous cell lines or single MHC allele transfected 721.221, C1R, or fibroblast lines; made in house
Experimental: as §1, §2, §3

Measured: IC50

T6 sequence (P01903 26-254, other chains not shown): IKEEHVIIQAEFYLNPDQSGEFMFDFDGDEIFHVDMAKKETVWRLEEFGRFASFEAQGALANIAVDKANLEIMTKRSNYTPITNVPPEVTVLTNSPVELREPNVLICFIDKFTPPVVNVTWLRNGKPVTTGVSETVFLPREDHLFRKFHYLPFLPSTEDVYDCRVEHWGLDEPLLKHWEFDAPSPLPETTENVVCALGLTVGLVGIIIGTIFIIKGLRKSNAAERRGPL

CC[C@H](C)[C@H](NC(=O)[C@H](CS)NC(=O)[C@H](CC(C)C)NC(=O)[C@H](CCCCN)NC(=O)[C@H](CCC(=O)O)NC(=O)[C@H](C)NC(=O)[C@@H](NC(=O)[C@H](CC(C)C)NC(=O)[C@@H]1CCCN1C(=O)[C@@H](NC(=O)[C@@H](N)[C@@H](C)O)[C@@H](C)CC)[C@@H](C)O)C(=O)N[C@@H](Cc1ccc(O)cc1)C(=O)N[C@H](C(=O)N[C@@H](CC(=O)O)C(=O)N[C@@H](CC(N)=O)C(=O)O)[C@@H](C)O [Peptide 1622.01]
> 20000 nM: [1] | [2] | [3] | [4] | [5] | [6] | [7] | [8] | [9]

Source: patent US20140377340A1, “HLA-DR BINDING PEPTIDES AND THEIR USES” (priority 2007, published 2014)
